US20240368191A1, “HETEROCYCLIC COMPOUNDS AND USES THEREOF” (Kumquat Biosciences Inc., priority 2021, published 2024)

Key:
[1] = target: T1, KRAS G12D 1-169 (His-tagged, GDP-loaded) (Homo sapiens, UniProt P01116, G12D); assay: Covalent modification of KRAS protein by intact-protein LC-MS; format: binding; conditions: comparable or same conditions as K-Ras G12S
T1 construct: His -tagged GDP-loaded G12D 1-169; made in house; host or cells: E. coli, e.g. BL21 (DE3)
Procedure, shortened: (§1)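 Percent modification is derived from deconvoluted intact-protein LC-ESI-MS peak intensities of adducted versus unmodified KRAS. GDP-loaded His-tagged KRAS 1-169 (~2 μM, HEPES buffer at physiological conditions) was exposed to compound for 24 hrs at room temperature, then quenched with formic acid before C4 reversed-phase separation.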

A549 cells = assay: Cell proliferation assay (CellTiter-Glo), K-Ras G12S cells; format: cell-based; conditions: A549 cells; Comparative Compound A lacking the warhead vs Compound B
Procedure: A549 (ATCC CRL-185) and LS123 (ATCC CRL-255) cell lines comprise a G12S mutation and can be used to assess Ras cellular signaling in vitro, e.g., in response to the compounds herein. A549 culture medium is prepared with RPMI-1640 and 10% heat-inactivated FBS. LS123 culture medium is prepared with RPMI-1640 and 10% heat-inactivated FBS. A CellTiter-Glo (CTG) luminescent based assay (Promega) is used to assess growth of the cells, as a measurement of the ability of the compounds herein to inhibit Ras signaling in the cells. The cells (e.g., 800 per well) are seeded in their respective culture medium in standard tissue culture-treated 384-well format plates (Falcon #08-772-116) or ultra-low attachment surface 384-well format plates (S-Bio #MS-9384WZ). The day after plating, cells are treated with a dilution series (e.g., a 10 point 3-fold dilution series) of the compounds herein (e.g., approximately 40 μl final volume per well). Cell viability can be monitored (e.g., approximately 6 days later) according to the manufacturer's recommended instructions, where the CellTiter-Glo reagent is added (e.g., approximately 10 μl), vigorously mixed, covered, and placed on a plate shaker (e.g., approximately for 20 min) to ensure sufficient cell lysis prior to assessment of luminescent signal. The IC50 values are determined using the four parameter fit. The resulting IC50 value is a measurement of the ability of the compounds herein to reduce cell growth of Ras-driven cells (e.g., tumor cell lines) in vitro and/or in vivo.

[2] = Metabolic (microsomal) stability assay; conditions: pooled liver microsomes, pH 7.4
K-Ras G12S = target: T2, K-Ras G12S (Homo sapiens, UniProt P01116, G12S); assay: HTRF assay, K-Ras G12S / SOS1 interaction; format: biochemical; conditions: IC50 against K-Ras G12D divided by IC50 against K-Ras G12S
T2 construct: made in house; host or cells: E. coli, e.g. BL21 (DE3)
From the text: This assay can be also used to assess a selective inhibition or reduction of signaling output of a mutant Ras protein relative to a wildtype, or relative to a different mutant Ras protein. For example, the equilibrium interaction of wildtype Kras or K-Ras mutant (e.g., wildtype or a mutant thereof including those mentioned in Example 6) with SOS1 (e.g., hSOS1) can be assessed as a proxy or an indication for a subject compound's ability to bind and inhibit Ras protein. HTRF assay detects from (i) a fluorescence resonance energy transfer (FRET) donor (e.g., antiGST-Europium) that is bound to GST-tagged K-Ras mutant to (ii) a FRET acceptor (e.g., anti-6His -XL665) bound to a His -tagged hSOS1.
The assay buffer can contain ˜5 mM HEPES pH 7.4, ˜150 mM NaCl, ˜1 mM DTT, 0.05% BSA and 0.0025% (v/v) Igepal. A Ras working solution is prepared in an assay buffer containing typically a suitable amount of the protein construct (e.g., GST-tagged K-Ras mutant) and the FRET donor (e.g., antiGST-Eu(K) from Cisbio, France). A SOS1 working solution is prepared in an assay buffer containing suitable amount of the protein construct (e.g., His -hSOS1) and the FRET acceptor (e.g., anti-6His -XL665 from Cisbio, France). A suitable amount of the protein construct will depend on the range of activity or range of IC50 values being detected or under investigation. For detecting IC50 within a range of 500 nM, the protein constructs of the same range of molarity can be utilized.
A fixed volume of DMSO with or without test compound is transferred into a 384-well plate. Ras working solution is added to all wells of the test plate. SOS1 working solution is added to all wells except for those that are subsequently filled the inhibitor control solution. Upon incubation for about 10 minutes or longer, the fluorescence is measured with a M1000Pro plate reader (Tecan) using HTRF detection (excitation 337 nm, emission 1: 620 nm, emission 2: 665 nm). Compounds are tested in duplicates at different concentrations (for example, 10 μM, 2.5 μM, 0.63 μM, 0.16 μM, 0.04 μM, 0.01 μM test compound). The ratiometric data (i.e., emission 2 divided by emission 1) is used to calculate IC50 values against Ras using GraphPad Prism (GraphPad software). Following this general procedure, samples were tested with or without a subject compound disclosed herein including compounds exemplified in Table 3 to assess their abilities to inhibit K-Ras G12S relative to another mutant (e.g., K-Ras G12D). Signaling output measured in terms of IC50 values can be obtained, a ratio of IC50 against one mutant relative to another mutant can be calculated. For instance, a selective reduction of K-Ras G12S signaling output can be evidenced by a ratio greater than one. In particular, a selective reduction of K-Ras G12S signaling relative to K-Ras G12D signaling is evidenced as the ratio of IC50 (against K-Ras G12D) to IC50 (against K-Ras G12S) is greater than 1.

[3] = target: T3, KRAS G12S 1-169 (His-tagged, GDP-loaded) (Homo sapiens, UniProt P01116, G12S); assay: Covalent modification of KRAS protein by intact-protein LC-MS; format: binding; conditions: KRAS G12S, 24 hr
T3 construct: His -tagged GDP-loaded G12S 1-169; made in house; host or cells: E. coli, e.g. BL21 (DE3)
Procedure, shortened: as §1

Molecule	covalent labeling of K-Ras G12D [1]	Compound IC50 Ratio IC50 (Cpd A):IC50 (Cpd B) (A549 cells)	half-life at 0.5 μM [2]	Ratio of IC50 KRAS G12D vs. IC50 KRAS G12S (K-Ras G12S)	% G12S Modification at 24 hr. [3]
N#CCc1ncn(C(=O)N2CC3(C2)CN(c2nc(OC[C@@]45CCCN4C[C@H](F)C5)nc4c(F)c(-c5ccc(F)c6sc(N)c(C#N)c56)c(Cl)cc24)CCO3)n1 [Compound A110, 2-amino-4-(6-chloro-4-(2-(3-(cyanomethyl)-1H-1,2,4-triazole-1-carbonyl)-5-oxa-2,8-diazaspiro[3.5]nonan-8-yl)-8-fluoro-2-(((2R,7aS)-2-fluoro-tetrahydro-1H-pyrrolizin-7a(5H)-yl)methoxy)quinazolin-7-yl)-7-fluorobenzo[b]thio-phene-3-carbonitrile]	essentially no detectable labeling	>4 (A549 cells)	> 10 min	–	–
Cc1nc(C(C)C)nn1C(=O)N1CC2(C1)CN(c1nc(OC[C@@]34CCCN3C[C@H](F)C4)nc3c(F)c(-c4ccc(F)c5sc(N)c(C#N)c45)c(Cl)cc13)CCO2 [Compound A208, 2-amino-4-(6-chloro-8-fluoro-2-(((2R,7aS)-2-fluorotetrahydro-1H-pyrrolizin-7a(5H)-yl)meth-oxy)-4-(2-(3-isopropyl-5-meth-yl-1H-1,2,4-triazole-1-carbon-yl)-5-oxa-2,8-diazaspiro[3.5]-nonan-8-yl)quinazolin-7-yl)-7-fluorobenzo[b]thiophene-3-carbonitrile]	–	–	–	A (A: indicates that the ratio of IC50 against KrasG12D vs. IC50 against KrasG12S is 1-fold or greater)	–
CN1CCC[C@H]1COc1nc(N2CCOC3(CN(C(=O)n4cncn4)C3)C2)c2cc(Cl)c(-c3ccc(F)c4sc(N)c(C#N)c34)c(F)c2n1 [Compound A137, 4-(4-(2-(1H-1,2,4-triazole-1-carbonyl)-5-oxa-2,8-diaza-spiro[3.5]nonan-8-yl)-6-chloro-8-fluoro-2-(((S)-1-methylpyr-rolidin-2-yl)methoxy)quinaz-olin-7-yl)-2-amino-7-fluoro-benzo[b]thiophene-3-carbonitrile]	essentially no detectable labeling	>4 (A549 cells)	–	–	–
2-amino-4-(6-chloro-4-(8-(5- chloro-1H-1,2,4-triazole-1- carbonyl)-3,8-diazabicyclo- [3.2.1]octan-3-yl)-8-fluoro-2- (((2R,7aS)-2-fluorotetrahydro- 1H-pyrrolizin-7a(5H)-yl)meth- oxy)quinazolin-7-yl)-7-fluoro- benzo[b]thiophene-3-carbonitrile [Compound A194]	essentially no detectable labeling	–	–	A (A: indicates that the ratio of IC50 against KrasG12D vs. IC50 against KrasG12S is 1-fold or greater)	++ (++ indicates between about 1%-20% labelling)
Nc1nc2c(-c3c(Cl)cc4c(N[C@H]5C[C@H]6CC[C@@H](C5)N6C(=O)n5cncn5)nc(OC[C@@]56CCCN5C[C@H](F)C6)nc4c3F)ccc(F)c2s1 [Compound A207, ((1R,3r,5S)-3-((7-(2-amino-7-fluorobenzo[d]thiazol-4-yl)-6-chloro-8-fluoro-2-(((2R,7aS)-2-fluorotetrahydro-1H-pyrrolizin-7a(5H)-yl)methoxy)quinazolin-4-yl)amino)-8-azabicyclo[3.2.1]-octan-8-yl)(1H-1,2,4-triazol-1-yl)methanone]	–	–	–	A (A: indicates that the ratio of IC50 against KrasG12D vs. IC50 against KrasG12S is 1-fold or greater)	+++ (+++ indicates greater than 20% labelling)
(4-((7-(2-amino-7-fluorobenzo- [d]thiazol-4-yl)-6-chloro-8- fluoro-2-(((2R,7aS)-2-fluoro- tetrahydro-1H-pyrrolizin- 7a(5H)-yl)methoxy)quinazolin- 4-yl)amino)piperidin-1-yl)(2- chloro-1H-imidazol-1-yl)meth- anone [Compound A159]	–	–	–	A (A: indicates that the ratio of IC50 against KrasG12D vs. IC50 against KrasG12S is 1-fold or greater)	–
N#Cc1cn(C(=O)N2CCC(Nc3nc(OC[C@@]45CCCN4C[C@H](F)C5)nc4c(F)c(-c5ccc(F)c6sc(N)nc56)c(Cl)cc34)CC2)cn1 [Compound A160, 1-(4-((7-(2-amino-7-fluorobenzo-[d]thiazol-4-yl)-6-chloro-8-fluoro-2-(((2R,7aS)-2-fluoro-tetrahydro-1H-pyrrolizin-7a(5H)-yl)methoxy)quinazolin-4-yl)amino)piperidine-1-car-bonyl)-1H-imidazole-4-carbo-nitrile]	–	–	–	A (A: indicates that the ratio of IC50 against KrasG12D vs. IC50 against KrasG12S is 1-fold or greater)	–
